Assay results reported in patent US8802597B2, “Herbicidal pyrimidines” (E I du Pont de Nemours and Company, priority 2003, dated 2014).
Like-named read-outs stand apart in the source and are kept apart here.

Experiments:
Format in all cases: in vivo
corn (Zea mays) = assay: Test B pre/postemergence; conditions: Zea mays
How it was run: (§1)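 Greenhouse whole-plant test; surfactant-containing non-phytotoxic solvent formulation; pre- and postemergence applications made simultaneously; post plants 2–18 cm, 1- to 4-leaf; visual scoring at 13–15 days on 0–100 scale relative to controls.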

[1] = system: cocklebur (Xanthium strumarium); assay: Test B pre/postemergence; conditions: Xanthium strumarium; for pest or weed control at 125 g/ha: 125 g ai/ha; for pest or weed control at 500 g/ha: 500 g ai/ha
How it was run: as §1

[2] = system: morningglory (Ipomoea coccinea); assay: Test B pre/postemergence; conditions: Ipomoea; for pest or weed control at 125 g/ha: 125 g ai/ha; for pest or weed control at 500 g/ha: 500 g ai/ha
How it was run: as §1

[3] = system: velvetleaf (Abutilon theophrasti); assay: Test B pre/postemergence; conditions: Abutilon theophrasti; for pest or weed control at 125 g/ha: 125 g ai/ha; for pest or weed control at 500 g/ha: 500 g ai/ha
How it was run: as §1

[4] = system: giant foxtail (Setaria faberii); assay: Test B pre/postemergence; conditions: Setaria faberi; for pest or weed control at 125 g/ha: 125 g ai/ha; for pest or weed control at 500 g/ha: 500 g ai/ha
How it was run: as §1

[5] = system: pigweed (Amaranthus retroflexus); assay: Test B pre/postemergence; conditions: Amaranthus retroflexus; for pest or weed control at 125 g/ha: 125 g ai/ha; for pest or weed control at 500 g/ha: 500 g ai/ha
How it was run: as §1

[6] = system: lambsquarters (Chenopodium album); assay: Test B pre/postemergence; conditions: Chenopodium album; for pest or weed control at 125 g/ha: 125 g ai/ha; for pest or weed control at 500 g/ha: 500 g ai/ha
How it was run: as §1

[7] = system: wheat (Triticum aestivum); assay: Test B pre/postemergence; conditions: Triticum aestivum; for plant injury at 125 g/ha: 125 g ai/ha; for plant injury at 500 g/ha: 500 g ai/ha
How it was run: as §1

[8] = system: Surinam grass (Brachiaria decumbens); assay: Test B pre/postemergence; conditions: Urochloa decumbens; for pest or weed control at 125 g/ha: 125 g ai/ha; for pest or weed control at 500 g/ha: 500 g ai/ha
How it was run: as §1

[9] = system: crabgrass (Digitaria sanguinalis); assay: Test B pre/postemergence; conditions: Digitaria sanguinalis; for pest or weed control at 125 g/ha: 125 g ai/ha; for pest or weed control at 500 g/ha: 500 g ai/ha
How it was run: as §1

[10] = system: barnyardgrass (Echinochloa crus-galli); assay: Test B pre/postemergence; conditions: Echinochloa crus-galli; for pest or weed control at 125 g/ha: 125 g ai/ha; for pest or weed control at 500 g/ha: 500 g ai/ha
How it was run: as §1

[11] = system: umbrella sedge (Cyperus difformis); assay: Test B flooded paddy test; conditions: Cyperus difformis, Flood, 1000 g ai/ha; scale 0 to 100; read-out: Plant response rating, Sedge, Umbrella
How it was run: (§2)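 Plants were grown to the 2-leaf stage before treatment, then kept in a greenhouse for 13 to 15 days. Injury was rated visually against untreated controls on a 0 to 100 scale, where 0 is no effect and 100 is complete control.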

[12] = system: duck salad (Heteranthera limosa); assay: Test B flooded paddy test; conditions: Heteranthera limosa, Flood, 1000 g ai/ha; scale 0 to 100; read-out: Plant response rating, Ducksalad
How it was run: as §2

rice (Oryza sativa) = assay: Test B flooded paddy test; conditions: Oryza sativa, Flood, 1000 g ai/ha; scale 0 to 100; read-out: Plant response rating, Rice
How it was run: as §2

[13] = system: barnyardgrass (Echinochloa crus-galli); assay: Test B flooded paddy test; conditions: Echinochloa crus-galli, Flood, 1000 g ai/ha; scale 0 (no effect) to 100 (complete control); read-out: Plant response rating, Barnyardgrass
How it was run: as §2

wild oat (Avena fatua) = assay: Test B postemergence; conditions: Avena fatua, post-emergence
How it was run: as §1

[14] = system: blackgrass (Alopecurus myosuroides); assay: Test B postemergence; conditions: Alopecurus myosuroides, post-emergence
How it was run: as §1

Molecule `Nc1nc(C2CC2)nc(C=O)c1F` [Compound 24] has a plant injury at 125 g/ha (corn (Zea mays); post-emergence, Postemergence, 125 g ai/ha, scale 0 to 100 (0 no effect, 100 complete control), read-out: Corn plant response rating) of 0%, a Corn plant response rating (crop injury, 0 = no effect, 100 = complete kill) at 500 g/ha (corn (Zea mays); post-emergence, Postemergence, 500 g ai/ha, scale 0 to 100) of 10% and a plant injury at 500 g/ha (corn (Zea mays); pre-emergence, Preemergence, 500 g ai/ha, scale 0 to 100 (0 no effect, 100 complete control), read-out: Corn plant response rating) of 0%. It also gave a pest or weed control at 125 g/ha ([1]; post-emergence, Postemergence, scale 0 to 100 (0 no effect, 100 complete control), read-out: Cocklebur plant response rating) of 50%, a pest or weed control at 500 g/ha ([1]; post-emergence, Postemergence, scale 0 to 100, read-out: Plant response rating, Cocklebur) of 70% and a pest or weed control at 125 g/ha ([1]; pre-emergence, Preemergence, scale 0 to 100 (0 no effect, 100 complete control), read-out: Plant response rating, Cocklebur) of 80%. For the same molecule, the pest or weed control at 500 g/ha ([1]; pre-emergence, Preemergence, scale 0 to 100 (0 no effect, 100 complete control), read-out: Cocklebur plant response rating) was 90%, the pest or weed control at 125 g/ha ([2]; post-emergence, Postemergence, scale 0 to 100 (0 no effect, 100 complete control), read-out: Morningglory plant response rating) was 60% and the pest or weed control at 500 g/ha ([2]; post-emergence, Postemergence, scale 0 to 100, read-out: Plant response rating, Morningglory) was 90%. The pest or weed control at 125 g/ha ([2]; pre-emergence, Preemergence, scale 0 to 100 (0 no effect, 100 complete control), read-out: Plant response rating, Morningglory) was 50%, the pest or weed control at 500 g/ha ([2]; pre-emergence, Preemergence, scale 0 to 100 (0 no effect, 100 complete control), read-out: Morningglory plant response rating) was 90% and the pest or weed control at 125 g/ha ([3]; post-emergence, Postemergence, scale 0 to 100 (0 no effect, 100 complete control), read-out: Velvetleaf plant response rating) was 40%. The pest or weed control at 500 g/ha ([3]; post-emergence, Postemergence, scale 0 to 100, read-out: Plant response rating, Velvetleaf) was 50%, the pest or weed control at 125 g/ha ([3]; pre-emergence, Preemergence, scale 0 to 100 (0 no effect, 100 complete control), read-out: Plant response rating, Velvetleaf) was 50% and the pest or weed control at 500 g/ha ([3]; pre-emergence, Preemergence, scale 0 to 100 (0 no effect, 100 complete control), read-out: Velvetleaf plant response rating) was 80%. The pest or weed control at 125 g/ha ([4]; post-emergence, Postemergence, scale 0 to 100 (0 no effect, 100 complete control), read-out: Foxtail, Giant plant response rating) was 20%, the pest or weed control at 500 g/ha ([4]; post-emergence, Postemergence, scale 0 to 100, read-out: Plant response rating, Foxtail, Giant) was 30% and the pest or weed control at 125 g/ha ([4]; pre-emergence, Preemergence, scale 0 to 100 (0 no effect, 100 complete control), read-out: Plant response rating, Foxtail, Giant) was 10%. For the same molecule, the pest or weed control at 500 g/ha ([4]; pre-emergence, Preemergence, scale 0 to 100 (0 no effect, 100 complete control), read-out: Foxtail, Giant plant response rating) was 60%, the pest or weed control at 125 g/ha ([5]; post-emergence, Postemergence, scale 0 to 100 (0 no effect, 100 complete control), read-out: Pigweed plant response rating) was 70% and the pest or weed control at 500 g/ha ([5]; post-emergence, Postemergence, scale 0 to 100, read-out: Plant response rating, Pigweed) was 80%. It also gave a pest or weed control at 125 g/ha ([5]; pre-emergence, Preemergence, scale 0 to 100 (0 no effect, 100 complete control), read-out: Plant response rating, Pigweed) of 80%, a pest or weed control at 500 g/ha ([5]; pre-emergence, Preemergence, scale 0 to 100 (0 no effect, 100 complete control), read-out: Pigweed plant response rating) of 90% and a pest or weed control at 125 g/ha ([6]; post-emergence, Postemergence, scale 0 to 100 (0 no effect, 100 complete control), read-out: Lambsquarters plant response rating) of 70%. The pest or weed control at 500 g/ha ([6]; post-emergence, Postemergence, scale 0 to 100, read-out: Plant response rating, Lambsquarters) was 80%, the pest or weed control at 125 g/ha ([6]; pre-emergence, Preemergence, scale 0 to 100 (0 no effect, 100 complete control), read-out: Plant response rating, Lambsquarters) was 70% and the pest or weed control at 500 g/ha ([6]; pre-emergence, Preemergence, scale 0 to 100 (0 no effect, 100 complete control), read-out: Lambsquarters plant response rating) was 90%. For the same molecule, the plant injury at 125 g/ha ([7]; post-emergence, Postemergence, scale 0 to 100 (0 no effect, 100 complete control), read-out: Wheat plant response rating) was 0%, the plant injury at 500 g/ha ([7]; post-emergence, Postemergence, scale 0 to 100, read-out: Plant response rating, Wheat) was 0% and the plant injury at 125 g/ha ([7]; pre-emergence, Preemergence, scale 0 to 100 (0 no effect, 100 complete control), read-out: Plant response rating, Wheat) was 30%. The plant injury at 500 g/ha ([7]; pre-emergence, Preemergence, scale 0 to 100 (0 no effect, 100 complete control), read-out: Wheat plant response rating) was 70%, the pest or weed control at 125 g/ha ([8]; post-emergence, Postemergence, scale 0 to 100 (0 no effect, 100 complete control), read-out: Surinam Grass plant response rating) was 0% and the pest or weed control at 500 g/ha ([8]; post-emergence, Postemergence, scale 0 to 100, read-out: Plant response rating, Surinam Grass) was 10%. It also gave a pest or weed control at 125 g/ha ([8]; pre-emergence, Preemergence, scale 0 to 100 (0 no effect, 100 complete control), read-out: Plant response rating, Surinam Grass) of 10%, a pest or weed control at 500 g/ha ([8]; pre-emergence, Preemergence, scale 0 to 100 (0 no effect, 100 complete control), read-out: Surinam Grass plant response rating) of 50% and a pest or weed control at 125 g/ha ([9]; post-emergence, Postemergence, scale 0 to 100 (0 no effect, 100 complete control), read-out: Crabgrass plant response rating) of 20%. For the same molecule, the pest or weed control at 500 g/ha ([9]; post-emergence, Postemergence, scale 0 to 100, read-out: Plant response rating, Crabgrass) was 40%, the pest or weed control at 125 g/ha ([9]; pre-emergence, Preemergence, scale 0 to 100 (0 no effect, 100 complete control), read-out: Plant response rating, Crabgrass) was 60% and the pest or weed control at 500 g/ha ([9]; pre-emergence, Preemergence, scale 0 to 100 (0 no effect, 100 complete control), read-out: Crabgrass plant response rating) was 80%. For the same molecule, the pest or weed control at 125 g/ha ([10]; post-emergence, Postemergence, scale 0 to 100 (0 no effect, 100 complete control), read-out: Barnyardgrass plant response rating) was 0%, the pest or weed control at 500 g/ha ([10]; post-emergence, Postemergence, scale 0 to 100, read-out: Plant response rating, Barnyardgrass) was 10% and the pest or weed control at 125 g/ha ([10]; pre-emergence, Preemergence, scale 0 to 100 (0 no effect, 100 complete control), read-out: Plant response rating, Barnyardgrass) was 0%. The pest or weed control at 500 g/ha ([10]; pre-emergence, Preemergence, scale 0 to 100 (0 no effect, 100 complete control), read-out: Barnyardgrass plant response rating) was 20%, the pest or weed control at 1000 g/ha [11] was 20% and the pest or weed control at 1000 g/ha [12] was 0%. For the same molecule, the plant injury at 1000 g/ha (rice (Oryza sativa)) was 10%, the pest or weed control at 1000 g/ha [13] was 0% and the pest or weed control at 125 g/ha (wild oat (Avena fatua); 125 g ai/ha, scale 0 to 100 (0 no effect, 100 complete control), read-out: Oat, Wild plant response rating) was 0%. The pest or weed control at 500 g/ha (wild oat (Avena fatua); 500 g ai/ha, scale 0 to 100, read-out: Plant response rating, Oat, Wild) was 0%, the pest or weed control at 125 g/ha ([14]; 125 g ai/ha, scale 0 to 100 (0 no effect, 100 complete control), read-out: Blackgrass plant response rating) was 0% and the pest or weed control at 500 g/ha ([14]; 500 g ai/ha, scale 0 to 100, read-out: Plant response rating, Blackgrass) was 10%.
